Reference: patent publication US20180111913A1, “SUBSTITUTED BENZOFURAN DERIVATIVES AS NOVEL ANTIMYCOBACTERIAL AGENTS” (priority 2015, published 2018)
Values after ≈ are worked out from the molar mass of the structure shown. Where two headings read alike, the source gives them in different places.

What was measured:
[1] = target: Mtb Pks13-TE domain (wild-type) (Mycobacterium tuberculosis, UniProt I6X8D2); experiment: biochemical; type: biochemical
Mtb strain mc^27000 = experiment: microbe, parasite or virus in culture; type: cell-based, Mycobacterium tuberculosis
[2] = system: human dermal fibroblast (HDF) cells; conditions: for Non-Toxic Concentration: human, 48 h
[3] = Mtb Pks13-TE domain, mean ± s.d. of triplicates, read-out: IC50
[4] = Pks13-TE, 20 μM 4-MUH, read-out: IC50
[5] = Mtb mc^27000, liquid medium, 96-well plates
[6] = […], mean ± s.d. of triplicates, NI: no inhibition
[7] = Mtb mc^27000, liquid medium, 96-well plates, read-out: MIC
[8] = Mycobacterium tuberculosis, Mtb mc^27000, liquid medium, 96-well plates, read-out: MIC
[9] = Mycobacterium tuberculosis, […], mean ± s.d. of triplicates, NI: no inhibition, read-out: MIC
[10] = Pks13 enzyme inhibition, read-out: Pks13 IC50
[11] = Mycobacterium tuberculosis, read-out: Pks13 MIC
[12] = HDF cell survival relative to DMSO-only control at the first (or only) Non-Toxic Concentration value
[13] = HDF cell survival relative to DMSO-only control at the second Non-Toxic Concentration value

Mtb Pks13-TE domain (wild-type), sequence (I6X8D2 1451-1733): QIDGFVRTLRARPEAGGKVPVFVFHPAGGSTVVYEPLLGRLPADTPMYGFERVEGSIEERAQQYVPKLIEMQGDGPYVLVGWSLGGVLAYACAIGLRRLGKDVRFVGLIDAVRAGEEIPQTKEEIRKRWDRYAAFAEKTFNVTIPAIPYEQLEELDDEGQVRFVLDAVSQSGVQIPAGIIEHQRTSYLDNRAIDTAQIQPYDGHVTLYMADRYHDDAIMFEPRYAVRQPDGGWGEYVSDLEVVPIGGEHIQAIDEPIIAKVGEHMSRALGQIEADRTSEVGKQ

Row | Structure (SMILES) | IC50 [1, 4] [nM] | MIC (Mtb strain mc^27000; [8]) [µM] | IC50 [1, 10] [nM] | MIC (Mtb strain mc^27000; [11]) [µM] | Survival vs. Control [2, 12] [%] | Non-Toxic Concentration [2] [µM] | also measured
1 | CCOC(=O)c1c(-c2ccccc2)oc2ccc(O)c(CN3CCCC(C)C3)c12 (stereo not shown) [compound 2] | 120 |  |  |  |  |  | IC50 [1, 3]: 120 ± 20 nM; higher MIC compared to the test compound (Mtb strain mc^27000): ~2 fold; MIC (Mtb strain mc^27000; [5]): 4.4 ± 0.2 µM (≈ 1.73 µg/mL); MIC (Mtb strain mc^27000; [6]): 4.4 ± 0.2 µM (≈ 1.73 µg/mL); growth inhibition in HDF cells relative to DMSO only control ([2]; up to 40 (unit not given)): did not show any growth inhibition
2 | CCOC(=O)c1c(-c2ccccc2)oc2ccc(O)c(CN3CCCC3)c12 [compound 3] | 240 ± 20 |  |  |  |  |  | IC50 [1, 3]: 240 ± 20 nM; higher MIC compared to the test compound (Mtb strain mc^27000): ~2 fold; MIC (Mtb strain mc^27000; [7]): 4.1 µM (≈ 1.5 µg/mL); MIC (Mtb strain mc^27000; [6]): 4.1 ± 0.1 µM (≈ 1.5 µg/mL); IC50 ([2]; read-out: half-maximum inhibitory concentration in HDF cells, HDF cells, resazurin): > 15000 nM
3 | CCOC(=O)c1c(-c2ccccc2)oc2ccc(O)c(CN3CCCCCC3)c12 [compound 4] | 280 ± 30 | 4.6 ± 0.3 (≈ 1.81 µg/mL) |  |  |  |  | IC50 [1, 3]: 280 ± 30 nM; higher MIC compared to the test compound (Mtb strain mc^27000): ~2 fold; MIC (Mtb strain mc^27000; [9]): 4.6 ± 0.03 µM (≈ 1.81 µg/mL); growth inhibition in HDF cells relative to DMSO only control [2]: did not show any growth inhibition
4 | CCOC(=O)c1c(-c2ccccc2)oc2ccc(O)c(CN3CCOCC3)c12 [compound 5] | 710 |  |  |  |  |  | IC50 [1, 3]: 710 ± 50 nM; IC50 value lower than compound F against Pks13-TE ([1]; relative to compound F): > 2 fold; loss of inhibitory activity / higher IC50 against Pks13-TE compared to the test compound ([1]; relative to test compound): ~3 fold; higher MIC compared to the test compound (Mtb strain mc^27000): 6 fold; MIC (Mtb strain mc^27000; [5]): 13.3 ± 1.6 µM (≈ 5.07 µg/mL); MIC (Mtb strain mc^27000; [6]): 13.3 ± 1.6 µM (≈ 5.07 µg/mL); MIC higher than compound F in whole cell testing (Mtb strain mc^27000; relative to compound F): ~2 fold; growth inhibition in HDF cells relative to DMSO only control ([2]; up to 40 (unit not given)): did not show any growth inhibition
5 | Oc1ccc2[nH]c(-c3ccccc3)nc2c1CN1CCCCC1 [compound 8] | 6800 | 22 (≈ 6.76 µg/mL) | 6800 | 22 (≈ 6.76 µg/mL) | 78 |  | Survival vs. Control [2, 13]: 94%
6 | CCOC(=O)c1c(-c2ccccc2)oc2ccc(O)c(CN3CCCCC3)c12 [compound 13] | 300 | 0.4 (≈ 0.152 µg/mL) | 260 | 0.4 (≈ 0.152 µg/mL) | 105 | 50 | MIC (Mtb strain mc^27000; [9]): 0.4 µM (≈ 0.152 µg/mL); growth inhibition in HDF cells relative to DMSO only control [2]: did not show any growth inhibition
7 | CCOC(=O)c1c(-c2ccc(OC)cc2)oc2ccc(O)c(CN3CCCCC3)c12 [compound 21] | 290 | 2.6 (≈ 1.06 µg/mL) | 290 | 2.6 (≈ 1.06 µg/mL) | 104 | 50 | 
8 | CCOC(=O)c1c(-c2ccccc2)oc2cc(N)c(O)c(CN3CCCCC3)c12 [compound 27] | 370 | 8 (≈ 3.16 µg/mL) | 370 | 8 (≈ 3.16 µg/mL) | 77 |  | Survival vs. Control [2, 13]: 114%
9 | CNC(=O)c1c(-c2ccc(F)cc2)oc2ccc(O)c(CN3CCCCC3)c12 [compound 29] | 300 | 4.5 (≈ 1.72 µg/mL) | 300 | 4.5 (≈ 1.72 µg/mL) | 89 |  | Survival vs. Control [2, 13]: 112%
10 | CCOC(=O)c1c(-c2ccccc2)oc2cc(N)cc(CN3CCCCC3)c12 [compound 34] | 4500 | 9.2 (≈ 3.48 µg/mL) | 4500 | 9.2 (≈ 3.48 µg/mL) | 82 | 100 | 
11 | CCOC(=O)c1c(-c2ccccc2)oc2cc(O)cc(CN3CCCCC3)c12 [compound 38] |  | 6.7 (≈ 2.54 µg/mL) | 450 | 6.7 (≈ 2.54 µg/mL) | 111 | 100 | 
12 | CC(C)(C)OC(=O)N1CCN(C(=O)c2c(-c3ccccc3)oc3ccc(O)c(CN4CCCCC4)c23)CC1 [compound 39] | 660 | 2.1 (≈ 1.09 µg/mL) | 660 | 2.1 (≈ 1.09 µg/mL) | 101 | 100 | 
13 | CNC(=O)c1c(-c2ccccc2)oc2cc(O)cc(CN3CCCCC3)c12 [compound 40] | 600 | 20 (≈ 7.29 µg/mL) | 600 | 20 (≈ 7.29 µg/mL) | 101 | 100 | 
14 | O=C(c1c(-c2ccccc2)oc2ccc(O)c(CN3CCCCC3)c12)N1CCNCC1 [compound 41] | 440 | 20 (≈ 8.39 µg/mL) | 740 | 3.1 (≈ 1.3 µg/mL) | 100 | 100 | 
15 | O=C(c1c(-c2ccccc2)oc2ccc(O)c(CN3CCCCC3)c12)N1CCCCC1 [compound 42] | 740 |  | 320 | > 10 | 89 | 100 | MIC (Mtb strain mc^27000; [7]): 3.1 µM (≈ 1.3 µg/mL)
16 | CC(=O)NCCNC(=O)c1c(-c2ccccc2)oc2ccc(O)c(CN3CCCCC3)c12 [compound 44] | 500 | > 40 | 500 | > 40 | 104 | 50 | 
17 | CCOC(=O)c1c(-c2ccc(O)cc2)oc2cc(O)cc(CN3CCCCC3)c12 [compound 45] | 440 | 1.1 (≈ 0.435 µg/mL) | 440 | 1.1 (≈ 0.435 µg/mL) | 89 | 100 | 
18 | CCOC(=O)c1c(-c2ccc(O)nc2)oc2ccc(O)c(CN3CCCCC3)c12 [compound 58] |  | 4 (≈ 1.59 µg/mL) | 360 | 4 (≈ 1.59 µg/mL) | 95 | 50 | 
19 | CNC(=O)c1c(-c2ccc(O)c(F)c2)oc2ccc(O)c(CN3CCCCC3)c12 [compound 61] |  | 0.5 (≈ 0.199 µg/mL) | 330 | 0.5 (≈ 0.199 µg/mL) | 94 | 50 | 
20 | CCOC(=O)c1c(-c2ccc(C#N)cc2)oc2ccc(O)c(CN3CCCCC3)c12 [compound 62] | 270 | 1.5 (≈ 0.607 µg/mL) | 270 | 1.5 (≈ 0.607 µg/mL) | 90 | 6.25 | 
21 | CCOC(=O)c1c(-c2cc(F)c(O)c(F)c2)oc2ccc(O)c(CN3CCCCC3)c12 [compound 63] | 500 | 7 (≈ 3.02 µg/mL) | 500 | 7 (≈ 3.02 µg/mL) | 99 | 25 | 
22 | CNC(=O)c1c(-c2cc(F)c(O)c(F)c2)oc2ccc(O)c(CN3CCCCC3)c12 [compound 64] | 1500 | > 40 | 1500 to 1900 |  | 94 | 100 | Pks13 MIC (Mtb strain mc^27000; whole cell, mc^27000 Mtb, NI at 40 μM): NI (40 μM)
23 | OCc1c(-c2ccccc2)oc2ccc(O)c(CN3CCCCC3)c12 [compound 65] | 240 | 12.5 (≈ 4.22 µg/mL) | 240 | 6 to 12.5 (≈ 2.02 to 4.22 µg/mL) | 95 | 25 | 
24 | COC(=O)c1c(-c2ccccc2)oc2cc(O)cc(CNC(C)C)c12 [compound 67] |  | 9 (≈ 3.05 µg/mL) | 700 | 9 (≈ 3.05 µg/mL) | 97 | 25 | 
25 | CCOC(=O)c1c(-c2ccccc2)oc2cc(O)cc(CN3CCC(C#N)CC3)c12 [compound 69] | 1600 | 20 (≈ 8.09 µg/mL) | 1600 | 20 (≈ 8.09 µg/mL) | 93 | 50 | 
26 | CCOC(=O)c1c(-c2ccccc2)oc2cc(O)cc(CN3CCC(NC(C)=O)CC3)c12 [compound 70] | 6100 | > 40 | 6100 | > 40 | 91 | 50 | 
